Assay results reported in US20230392118A1, “GENERATION OF CD4+ EFFECTOR AND REGULATORY T CELLS FROM HUMAN PLURIPOTENT STEM CELLS” (Sangamo Therapeutics, Inc., priority 2020, published 2023).

System: dox-inducible GFP expression cassette
Assay: Dox-inducible GFP expression cassette integrated into AAVS1 locus of iPSCs
Format: cell-based, human
Description: This Example describes an experiment in which a green fluorescent protein expression cassette was integrated into the AAVS1 gene locus as illustrated in FIG. 21. AAVS1 ZFN mRNA and donor plasmid were delivered into iPSCs via electroporation on Day −7. One week later (Day 0), puromycin was added (0.3 μg/mL) to the tissue culture to begin positive selection for cells having undergone targeted integration. Doxycycline was added at Day 15 and maintained in culture at 3 different doses (0.3, 1, and 3 μg/mL) to induce expression of the dox-inducible GFP expression cassette. […] Cells were maintained in the presence of doxycycline for 13 days. During this period, the 3 μg/mL dose of doxycycline yielded the highest level of inducible GFP transgene expression (94%; FIG. 22). This high level of expression was sustained while doxycycline was present in culture. Cells were maintained in puromycin as well as doxycycline from Day 15-28 and were further positively selected (increase from ˜50% to ˜70% of alleles with targeted integration).

Row | Structure (SMILES) | Alleles with targeted integration after positive selection (puromycin as well as doxycycline, Day 15-28, increase from ~50%) [%] | Inducible GFP transgene expression (3 μg/mL doxycycline, iPSCs, maintained 13 days) [%]
1 | COc1ccc(C[C@H](N)C(=O)N[C@H]2[C@@H](O)[C@H](n3cnc4c(N(C)C)ncnc43)O[C@@H]2CO)cc1 [puromycin] | ~70 | 
2 | C[C@H]1c2cccc(O)c2C(=O)C2=C(O)[C@]3(O)C(=O)C(C(N)=O)=C(O)[C@@H](N(C)C)[C@@H]3[C@@H](O)[C@@H]21 [doxycycline] |  | 94
